Reference: patent US20090220507A1, “INHIBITION OF EXTRACELLULAR SIGNAL-REGULATED KINASE 1/2 AS A TREATMENT FOR CARDIAC HYPERTROPHY AND HEART FAILURE” (priority 2005, published 2009)
Entries after “also recorded” stand apart in the source; their conditions may differ. * marks the point of attachment. Myristoyl = CCCCCCCCCCCCCC(=O)*

Legend:
ERK1/2 = experiment: Western blot of phosphorylated ERK1/2 in isoproterenol-stimulated NRVMs; type: cell-based, rat; details: for isoproterenol activation of ERK1/2 (phosphorylation): all time points (5, 30, 60 minutes, 6, 24, 33, 48 hours)
Protocol: (§1) Materials. Isoproterenol (Sigma) was dissolved in sterile H2O containing 1 mmol/L Ascorbic Acid, and the concentrations used are described in the results section.
(§2) Cell Culture. Neonatal rat cardiac ventricular myocytes (NRVMs) were cultured as previously described (Simpson et al., 1982; Simpson and Savion, 1982; Long et al., 1992; Waspe et al., 1990). Briefly, cells were isolated by trypsin digestion from the ventricles of 1-3 day old rats. Isolation procedures were done in a very gentle manner and cells were plated at a concentration of 1.5×10^5 cells per well in 12-well tissue culture plates in medium containing serum. 24 hours later the media was changed to serum free media containing insulin, transferin, bovine serum albumin, vitamin B12 and penicillin. Wells were pre-coated with a 0.1% gelatin solution and dried in a hood under UV lights. In addition, all media solutions were supplemented with Hepes (pH 7.5) to a final concentration of 20 mmol/L in order to buffer the pH of the media.
ERK1/2 Western Blots. Phosphorylated ERK1/2 protein extraction was performed essentially as described in Headley et al. (2004).
ERK1/2 activation is dependent on calcineurin and on CaMKII.

[1] = system: β1-AR-mediated fetal gene expression in NRVMs; experiment: RNase protection assay of isoproterenol-induced fetal gene program mRNA in NRVMs; type: cell-based, rat
Protocol: as §1, §2
(§3) RNase Protection Assay. Total RNA was extracted by TRIZol (Invitrogen) and used in RNase protection assays (RPA). RPAs were performed essentially as described (Patten et al., 1996; Kinugawa et al., 2001). Briefly, 5 μg of total RNA was hybridized against probes specific to skeletal α-actin, SRCA2A, α-MyHC, β-MyHC, ANF, BNP and GAPDH. RNase protection experiments were performed using the RPAII kit (Ambion). RPA experiments were performed from mRNA extracted from a minimum of three different experiments.
as §3, with “RNase Protection Assay: Total RNA” for “RNase Protection Assay. Total RNA”, “al., 1996; Kinuguwa et al.,” for “al., 1996; Kinugawa et al.,”, “protection experiments (RPAs) were performed” for “protection experiments were performed”

[2] = inhibitor 1 hour before isoproterenol, RPA, mRNA normalized to GAPDH
[3] = inhibitor alone, without isoproterenol
[4] = inhibitor 1 hour after ISO treatment, mRNA extracted 48 hours later, RPA

Molecule	isoproterenol activation of ERK1/2 (phosphorylation) (ERK1/2; inhibitor pre-treatment)	isoproterenol-induced changes in endogenous mRNA fetal gene program induction (all changes in fetal gene expression) [1, 2]	isoproterenol-associated down-regulation (repression) of SRCA2a [1, 2]	isoproterenol-associated down-regulation (repression) of α-MyHC [1, 2]	isoproterenol-associated up-regulation (induction) of ANP [1, 2]	isoproterenol-associated up-regulation of BNP [1, 2]	isoproterenol-associated up-regulation of skeletal α-actin [1, 2]	further results
14-22 Amide myristoylated (Myristoyl-GRTGRRNAI-NH2; SMILES CCCCCCCCCCCCCC(=O)NCC(=O)N[C@@H](CCCNC(=N)N)C(=O)N[C@H](C(=O)NCC(=O)N[C@@H](CCCNC(=N)N)C(=O)N[C@@H](CCCNC(=N)N)C(=O)N[C@@H](CC(N)=O)C(=O)N[C@@H](C)C(=O)N[C@H](C(N)=O)[C@@H](C)CC)[C@@H](C)O; UniProt P61925 15-23, looked up, fragment) [PKI14-22]	did not prevent	–	–	–	–	–	–	–
NCCOB(c1ccccc1)c1ccccc1 [AFB-30, 2-APB]	–	completely abrogated	–	–	–	–	–	–
COc1ccc(S(=O)(=O)N(CCO)c2ccccc2CN(C)C/C=C/c2ccc(Cl)cc2)cc1 [KN-93]	–	prevented	not capable of preventing	prevented	prevented	prevented	prevented	ANP mRNA levels [1, 3]: decrease; SRCA2a mRNA levels [1, 3]: decrease; β-MyHC mRNA levels [1, 3]: decrease; activation of ERK1/2 in response to isoproterenol (phosphorylation) (ERK1/2; inhibitor pre-treatment, 33 and 48 hour isoproterenol time points): blocked
N#CC(=C(/N)Sc1ccccc1N)/C(C#N)=C(\N)Sc1ccccc1N [U0126]	completely abrogates	–	does not prevent	blocks; also recorded: prevents	blocks	blocks	blocks	ISO-mediated down-regulation of αMyHC [1, 4]: prevents; ISO-mediated up-regulation of the fetal isoforms (fetal gene expression) [1, 4]: prevents; up-regulation (activation) of β-MyHC in response to isoproterenol stimulation [1, 2]: prevents; ISO-mediated up-regulation of the fetal isoforms ([1]; inhibitor 1 hour prior to ISO treatment, mRNA extracted 48 hours later, RPA): prevents
CC(C)NCC(O)c1ccc(O)c(O)c1 (centres unmarked) [isoproterenol]	–	–	–	–	–	–	–	ERK phosphorylation as a surrogate marker for activation (ERK1/2; isoproterenol stimulation, 5 minutes, 33 hours and 48 hours): increased
